# Data as given in ChEMBL document CHEMBL1201862, “PubChem BioAssay data set” (2004).
# Active and inactive are the calls of the source.
# How the values were obtained:
# [1] = viability loss in THP-1 monocytes – THP-1 cells, cytotoxicity control for Vif-APOBEC3G degradation inhibitor project, dose response (AID 1117359); assay type: functional; conditions: THP-1
# [2] = Luminescent dose response cell-based high throughput screening assay for inhibitors of the Janus kinase 2 mutant JAK2V617F. [Related pubchem assays: 1446 (Primary screen.), 1521 (Confirmation assay.), 1486 (Counter screen.)]; assay type: functional
# Kallikrein-7 = Kallikrein-7 (Homo sapiens, UniProt P49862); assay: Fluorescence Intensity-based biochemical primary high throughput dose response assay to identify activators of kallikrein-7 (K7) zymogen.
# Sequence of Kallikrein-7 (P49862 whole entry, the tested form may be a part): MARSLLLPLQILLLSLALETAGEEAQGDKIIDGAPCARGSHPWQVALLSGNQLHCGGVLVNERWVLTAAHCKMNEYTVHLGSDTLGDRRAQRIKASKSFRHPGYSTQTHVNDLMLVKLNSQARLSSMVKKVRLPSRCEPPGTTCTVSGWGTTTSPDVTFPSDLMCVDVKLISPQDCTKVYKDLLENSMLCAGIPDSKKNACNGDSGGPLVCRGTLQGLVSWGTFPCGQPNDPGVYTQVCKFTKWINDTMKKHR
# Fibrinogen beta chain [3] = target: T1, Fibrinogen beta chain (Homo sapiens, UniProt P02675); assay: Fluorescence polarization-based biochemical high throughput dose response assay to identify inhibitors that disrupt the binding of a cyclic peptide (Tn6) to the fibrin proteolytic product D-Dimer and fragment E complex [DD(E )].
# T1 sequence (P02675 whole entry): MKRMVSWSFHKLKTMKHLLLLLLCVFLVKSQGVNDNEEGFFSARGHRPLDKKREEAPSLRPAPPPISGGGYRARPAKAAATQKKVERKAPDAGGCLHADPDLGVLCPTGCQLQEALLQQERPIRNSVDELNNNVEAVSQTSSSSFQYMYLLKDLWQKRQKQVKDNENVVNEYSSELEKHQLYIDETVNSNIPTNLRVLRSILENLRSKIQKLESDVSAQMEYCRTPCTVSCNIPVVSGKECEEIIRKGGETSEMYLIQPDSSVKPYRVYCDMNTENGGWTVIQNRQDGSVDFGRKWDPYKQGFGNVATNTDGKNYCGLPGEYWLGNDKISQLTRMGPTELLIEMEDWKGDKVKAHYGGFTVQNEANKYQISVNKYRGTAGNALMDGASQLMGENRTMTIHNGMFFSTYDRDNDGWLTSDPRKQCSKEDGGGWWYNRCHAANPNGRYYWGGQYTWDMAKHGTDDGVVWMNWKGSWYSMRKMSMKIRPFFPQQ
# Fibrinogen beta chain [4] = target: T1, Fibrinogen beta chain; assay: Fluorescence polarization-based biochemical high throughput dose response assay to identify inhibitors that disrupt the binding of a cyclic peptide (Tn7) to the fibrin proteolytic product D-Dimer and fragment E complex [DD(E )].
# [5] = NIH3T3 cell viability loss – ATP luminescence, mouse fibroblasts, counter-screen, dose response (AID 2010); assay type: functional, cell-based;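 further: cells exposed to compound for about 90 hours before reading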
# [6] = Trypanosoma cruzi growth suppression in host cells – NIH3T3 host cells, beta-gal luminescence, confirmation (AID 2044); assay type: functional, cell-based;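 further: intracellular parasites grown in NIH/3T3 mouse fibroblasts as host cells; luminescent beta-galactosidase reporter signal from transgenic T. cruzi replicating inside host cells; inhibitors lower the luminescence signal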
# [7] = target: E3 ubiquitin-protein ligase Mdm2 (Homo sapiens, UniProt Q00987); assay: MDM2-luc reporter signal enhancers, multi-concentration potency testing, MDM2 ubiquitin-protein ligase inhibitor program, whole-cell format, luminescence detection, 384-well microplate (AID 1394); assay type: functional;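 further: MDM2 E3 inhibitors raise luminescence so EC50 is for signal enhancement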
# Sequence of E3 ubiquitin-protein ligase Mdm2 (Q00987 whole entry): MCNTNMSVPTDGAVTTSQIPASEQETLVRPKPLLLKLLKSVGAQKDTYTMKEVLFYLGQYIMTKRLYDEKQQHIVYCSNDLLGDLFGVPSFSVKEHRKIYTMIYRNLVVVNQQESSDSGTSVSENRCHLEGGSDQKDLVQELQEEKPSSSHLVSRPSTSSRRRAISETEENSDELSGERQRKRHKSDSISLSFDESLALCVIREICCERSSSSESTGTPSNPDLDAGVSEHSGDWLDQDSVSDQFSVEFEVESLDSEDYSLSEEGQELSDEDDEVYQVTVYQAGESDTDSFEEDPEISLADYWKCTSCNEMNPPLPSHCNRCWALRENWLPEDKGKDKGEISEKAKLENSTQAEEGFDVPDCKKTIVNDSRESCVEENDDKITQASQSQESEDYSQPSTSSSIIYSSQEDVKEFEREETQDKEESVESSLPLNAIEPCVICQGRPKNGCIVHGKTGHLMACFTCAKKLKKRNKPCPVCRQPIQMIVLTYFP
# Protein skinhead-1 = target: T2, Protein skinhead-1 (Caenorhabditis elegans, UniProt P34707); assay type: functional
# T2 sequence (P34707 whole entry): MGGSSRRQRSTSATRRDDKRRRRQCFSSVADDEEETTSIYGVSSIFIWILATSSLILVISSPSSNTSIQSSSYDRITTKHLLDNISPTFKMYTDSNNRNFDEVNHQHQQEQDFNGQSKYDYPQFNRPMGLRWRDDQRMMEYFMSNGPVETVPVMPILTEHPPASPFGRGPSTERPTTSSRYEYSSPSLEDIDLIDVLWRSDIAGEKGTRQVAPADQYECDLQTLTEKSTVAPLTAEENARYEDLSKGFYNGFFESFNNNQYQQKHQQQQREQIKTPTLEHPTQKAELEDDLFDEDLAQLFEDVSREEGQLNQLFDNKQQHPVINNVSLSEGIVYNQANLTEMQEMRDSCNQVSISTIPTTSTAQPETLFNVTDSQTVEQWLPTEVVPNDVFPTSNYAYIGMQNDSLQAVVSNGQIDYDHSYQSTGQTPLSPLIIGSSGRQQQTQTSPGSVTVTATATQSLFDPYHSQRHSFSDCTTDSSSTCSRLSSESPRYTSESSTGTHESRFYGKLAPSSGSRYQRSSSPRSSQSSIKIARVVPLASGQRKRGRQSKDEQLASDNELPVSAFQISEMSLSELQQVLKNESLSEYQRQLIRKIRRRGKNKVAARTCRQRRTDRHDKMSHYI
# [8] = target: T3, Long-chain-fatty-acid--AMP ligase FadD28 (Mycobacterium tuberculosis, UniProt P9WQ59); assay: Fluorescence polarization aasay to screen for inhibitors that compete for the binding of FadD28 to a bisubstrate Measured in Biochemical System Using Plate Reader - 2147-01_Inhibitor_Dose_CherryPick_Activity.; assay type: functional, Mycobacterium tuberculosis H37Rv
# T3 sequence (P9WQ59 whole entry): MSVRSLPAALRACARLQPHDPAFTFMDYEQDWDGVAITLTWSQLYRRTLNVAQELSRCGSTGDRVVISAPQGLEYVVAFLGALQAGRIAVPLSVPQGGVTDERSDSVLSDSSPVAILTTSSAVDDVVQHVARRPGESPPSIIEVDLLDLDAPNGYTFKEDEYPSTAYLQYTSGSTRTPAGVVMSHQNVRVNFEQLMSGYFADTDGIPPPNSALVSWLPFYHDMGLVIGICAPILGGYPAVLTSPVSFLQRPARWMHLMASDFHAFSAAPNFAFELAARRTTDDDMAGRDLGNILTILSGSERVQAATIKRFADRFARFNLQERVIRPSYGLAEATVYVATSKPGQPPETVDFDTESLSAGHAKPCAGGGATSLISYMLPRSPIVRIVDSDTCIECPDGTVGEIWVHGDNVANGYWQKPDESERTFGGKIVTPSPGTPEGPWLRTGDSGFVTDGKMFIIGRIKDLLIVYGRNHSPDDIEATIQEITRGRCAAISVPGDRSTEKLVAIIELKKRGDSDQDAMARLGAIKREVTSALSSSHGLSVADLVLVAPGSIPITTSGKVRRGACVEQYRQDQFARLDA
# [9] = target: T4, Mannose-6-phosphate isomerase (Homo sapiens, UniProt P34949); assay: MPI inhibition at elevated mannose 6-phosphate – biochemical, fluorescence intensity, high mannose 6-phosphate, primary screen (AID 1220)
# T4 sequence (P34949 whole entry): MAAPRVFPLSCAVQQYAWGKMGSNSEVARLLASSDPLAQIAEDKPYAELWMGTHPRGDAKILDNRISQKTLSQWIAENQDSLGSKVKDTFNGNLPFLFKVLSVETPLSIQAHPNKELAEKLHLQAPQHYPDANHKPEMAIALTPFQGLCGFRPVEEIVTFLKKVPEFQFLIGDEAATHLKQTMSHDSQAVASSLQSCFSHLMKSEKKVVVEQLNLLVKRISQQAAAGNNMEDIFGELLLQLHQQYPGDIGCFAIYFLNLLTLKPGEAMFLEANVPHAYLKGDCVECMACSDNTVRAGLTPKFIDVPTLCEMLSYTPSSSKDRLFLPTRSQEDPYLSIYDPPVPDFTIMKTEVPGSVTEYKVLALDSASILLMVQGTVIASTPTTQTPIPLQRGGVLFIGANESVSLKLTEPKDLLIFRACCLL
# [10] = target: T5, Histone-lysine N-methyltransferase NSD2 (Homo sapiens, UniProt O96028); assay type: biochemical
# T5 sequence (O96028 whole entry): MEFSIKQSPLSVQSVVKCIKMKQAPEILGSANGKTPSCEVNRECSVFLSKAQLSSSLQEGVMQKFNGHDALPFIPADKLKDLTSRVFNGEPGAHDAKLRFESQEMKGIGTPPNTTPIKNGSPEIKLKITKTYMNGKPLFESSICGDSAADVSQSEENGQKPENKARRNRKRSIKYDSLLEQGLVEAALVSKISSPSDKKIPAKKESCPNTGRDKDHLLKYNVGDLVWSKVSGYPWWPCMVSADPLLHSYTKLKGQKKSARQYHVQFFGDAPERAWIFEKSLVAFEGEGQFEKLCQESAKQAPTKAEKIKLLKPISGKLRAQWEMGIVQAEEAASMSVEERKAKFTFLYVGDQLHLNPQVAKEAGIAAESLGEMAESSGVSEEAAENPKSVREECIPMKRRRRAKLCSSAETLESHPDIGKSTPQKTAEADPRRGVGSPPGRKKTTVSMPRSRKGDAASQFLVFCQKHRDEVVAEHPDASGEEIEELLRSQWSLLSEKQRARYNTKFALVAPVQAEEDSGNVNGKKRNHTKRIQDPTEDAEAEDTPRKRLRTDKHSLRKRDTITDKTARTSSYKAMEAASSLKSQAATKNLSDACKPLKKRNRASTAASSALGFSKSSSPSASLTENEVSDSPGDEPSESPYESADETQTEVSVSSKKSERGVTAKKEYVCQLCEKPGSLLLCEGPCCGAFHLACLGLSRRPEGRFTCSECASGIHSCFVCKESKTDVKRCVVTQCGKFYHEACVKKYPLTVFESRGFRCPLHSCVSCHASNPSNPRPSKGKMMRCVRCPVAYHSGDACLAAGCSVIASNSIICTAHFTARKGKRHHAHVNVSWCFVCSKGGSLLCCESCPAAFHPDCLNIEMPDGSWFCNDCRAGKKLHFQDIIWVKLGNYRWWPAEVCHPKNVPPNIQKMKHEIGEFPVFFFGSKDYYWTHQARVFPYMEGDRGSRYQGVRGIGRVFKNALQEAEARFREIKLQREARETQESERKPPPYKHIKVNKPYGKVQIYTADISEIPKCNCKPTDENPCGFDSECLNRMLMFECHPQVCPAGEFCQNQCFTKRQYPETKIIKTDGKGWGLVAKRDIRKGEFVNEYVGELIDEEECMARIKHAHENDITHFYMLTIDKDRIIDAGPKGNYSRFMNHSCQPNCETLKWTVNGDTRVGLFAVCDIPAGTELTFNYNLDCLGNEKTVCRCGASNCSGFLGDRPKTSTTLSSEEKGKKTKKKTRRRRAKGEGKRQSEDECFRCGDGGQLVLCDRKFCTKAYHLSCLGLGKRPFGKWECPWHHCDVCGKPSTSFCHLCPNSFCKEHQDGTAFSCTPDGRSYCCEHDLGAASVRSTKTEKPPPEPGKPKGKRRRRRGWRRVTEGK
# [11] = HIV-1 Vif–A3G interaction blockers – biochemical, TR-FRET, GST-Vif 1-94, biotin-A3G peptide, dose response retest, primary screen (AID 1117319); assay type: functional;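 further: TR-FRET signal of purified GST-Vif binding a biotinylated A3G peptide; inhibitors lower the FRET signal by blocking Vif and A3G binding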
# [12] = Dd2 parasite growth inhibition in erythrocytes – SYBR Green, dry powder samples, set 9, dose response (AID 1159568); assay type: functional, cell-based
# [13] = target: T6, RNA-binding protein pos-1 (Caenorhabditis elegans, UniProt G5EF15); assay: disruptors of C. elegans POS-1 RNA interaction – biochemical, fluorescence polarization, dose response (AID 1964);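 further: purified POS-1 fused to maltose binding protein made in E. coli; potency of compounds blocking POS-1 binding to fluorescent RNA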
# T6 sequence (G5EF15 whole entry): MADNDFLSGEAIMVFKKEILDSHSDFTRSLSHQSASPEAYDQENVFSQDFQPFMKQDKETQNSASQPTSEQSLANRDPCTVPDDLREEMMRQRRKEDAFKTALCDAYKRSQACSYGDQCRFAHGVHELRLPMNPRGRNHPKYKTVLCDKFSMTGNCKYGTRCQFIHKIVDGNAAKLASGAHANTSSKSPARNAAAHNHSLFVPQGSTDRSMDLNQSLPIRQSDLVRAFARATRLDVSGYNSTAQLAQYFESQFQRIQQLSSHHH
# [14] = target: T7, Zinc finger protein mex-5 (Caenorhabditis elegans, UniProt Q9XUB2); assay: potency of MEX-5 RNA-binding blockers – biochemical, C. elegans, fluorescence polarization, dose response (AID 1960)
# T7 sequence (Q9XUB2 whole entry): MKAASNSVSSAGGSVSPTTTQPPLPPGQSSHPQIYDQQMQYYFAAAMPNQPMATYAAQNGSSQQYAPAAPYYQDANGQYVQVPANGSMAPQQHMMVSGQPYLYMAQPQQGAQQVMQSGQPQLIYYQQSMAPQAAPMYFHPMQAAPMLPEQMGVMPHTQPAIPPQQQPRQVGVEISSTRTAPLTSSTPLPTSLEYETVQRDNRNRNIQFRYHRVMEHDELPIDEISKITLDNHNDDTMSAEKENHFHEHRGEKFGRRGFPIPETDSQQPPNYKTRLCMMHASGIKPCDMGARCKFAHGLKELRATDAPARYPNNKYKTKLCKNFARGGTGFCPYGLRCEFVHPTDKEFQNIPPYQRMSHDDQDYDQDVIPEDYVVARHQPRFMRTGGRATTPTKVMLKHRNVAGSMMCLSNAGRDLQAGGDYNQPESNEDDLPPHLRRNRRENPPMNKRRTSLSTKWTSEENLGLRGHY
# [15] = M. tuberculosis growth inhibition, HTS (AID 449762); assay type: functional
# Large T antigen = Large T antigen (Simian virus 40, UniProt P03070); assay type: functional, Betapolyomavirus macacae;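 further: Confirmatory-stage PubChem screen for compounds that inhibit SV40 T antigen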
# Sequence of Large T antigen (P03070 whole entry): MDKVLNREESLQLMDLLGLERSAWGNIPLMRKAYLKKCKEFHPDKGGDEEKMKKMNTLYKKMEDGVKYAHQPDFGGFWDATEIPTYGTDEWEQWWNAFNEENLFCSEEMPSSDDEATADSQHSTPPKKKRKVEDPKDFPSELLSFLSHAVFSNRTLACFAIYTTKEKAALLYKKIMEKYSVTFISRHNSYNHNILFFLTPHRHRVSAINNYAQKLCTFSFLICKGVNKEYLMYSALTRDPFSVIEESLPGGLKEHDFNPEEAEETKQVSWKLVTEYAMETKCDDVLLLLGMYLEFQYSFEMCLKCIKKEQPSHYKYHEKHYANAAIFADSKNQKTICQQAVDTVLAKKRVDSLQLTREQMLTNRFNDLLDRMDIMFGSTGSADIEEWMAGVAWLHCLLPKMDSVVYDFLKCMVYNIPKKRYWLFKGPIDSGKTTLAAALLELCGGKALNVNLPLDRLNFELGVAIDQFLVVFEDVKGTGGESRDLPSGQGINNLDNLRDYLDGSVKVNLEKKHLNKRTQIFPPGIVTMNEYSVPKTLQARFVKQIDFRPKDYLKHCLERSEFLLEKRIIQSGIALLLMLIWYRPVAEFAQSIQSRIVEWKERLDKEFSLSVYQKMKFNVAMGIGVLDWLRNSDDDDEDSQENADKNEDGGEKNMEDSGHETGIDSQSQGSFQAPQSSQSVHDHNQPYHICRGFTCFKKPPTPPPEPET
structure (smiles),measurement,setting,value
CC1C(=O)N2CCCc3cc(NC(=O)C(=O)NCc4cccnc4)cc1c32 (configuration not stated),CC50,[1],> 40 µM (active)
O=C(Nc1cccc2c1[nH]c1ccccc12)C(F)(F)F,IC50,[2],2.48 µM (active)
same,EC50,Kallikrein-7,31.8 µM (inactive)
CN(c1ccccc1)S(=O)(=O)c1ccc(Cl)c(C(=O)Nc2ccc(-c3nc4ccccc4[nH]3)cc2)c1,IC50,Fibrinogen beta chain [3],> 83.3 µM (inactive)
same,IC50,Fibrinogen beta chain [4],> 83.3 µM (inactive)
same,EC50,[5],> 30 µM (not active)
same,EC50,[6],1.68 µM (active)
COc1ccc(S(=O)(=O)NN(C)c2ncc(C(F)(F)F)cc2Cl)cc1,EC50,[7],380 nM (not active)
CCn1c(CSc2n[nH]c(N)n2)nc2cc(C(=O)O)ccc21,IC50,Protein skinhead-1,> 100 µM (inactive)
same,IC50,Fibrinogen beta chain [3],8.92 µM (active)
same,IC50,Fibrinogen beta chain [4],> 83.3 µM (inactive)
same,AC50,[8],79 µM (active)
COc1ccccc1N=C(S)Nc1cccc2cnccc12,IC50,[9],> 50 µM (not active)
same,AC50,[10],10.1 µM (active)
CC(C)Cc1ccc(C(C)C(=N)N)cc1 (configuration not stated),IC50,[11],> 100 µM (active)
same,CC50,[1],> 40 µM (active)
Cc1ccccc1-c1ccc2c(c1)O[C@H](CN(C)C(=O)Nc1ccc(C(F)(F)F)cc1)[C@@H](C)CN([C@@H](C)CO)S2(=O)=O,AC50,[12],5.32 µM (active)
COc1ccccc1N1C(=O)NC(=O)/C(=C/c2ccc([N+](=O)[O-])s2)C1=O,EC50,[13],44.1 µM (active)
same,EC50,[14],23 µM (active)
same,IC50,[15],> 100 µM (active)
same,IC50,Large T antigen,> 100 µM (active)
CN(C)C(=O)c1ccc(-c2ccc([C@@H]3[C@H]4CN(C(=O)CC5CC5)CC(=O)N4[C@H]3CO)cc2)cc1,AC50,[12],14.4 µM (active)
